# Experimental data published in ChEMBL document CHEMBL5728197, “KDM1A inhibitors for the treatment of disease” (2021).
# pIC50: −log10 of the molar value.
# Biological target: Lysine-specific histone demethylase 1A (Homo sapiens, UniProt O60341)
# Test: Biological Activity Assay: Assaying the inhibition of KDM1A can be determined in vitro, in cultured cells, and in animals. There are a variety of spectrophotometric methods to detect the results of demethylation of methylated lysines, viz., detecting the products of KDM1A demethylase oxidative activity on a peptide fragment of at least 18 amino acid representing the N-terminus of the histone H3 substrate that contains a monomethyl at the fourth lysine residue. Hydrogen peroxide, one product of the KDM1A demethylase reaction, reacts with horseradish peroxidase and dihydroxyphenoxazine (ADHP) to produce the fluorescent compound resorufin (excitation=530-560 nm:emission=590 nm). The KDM1A demethylase enzyme activity can obtained from mammalian cells or tissues expressing KDM1A from an endogenous or recombinant gene and purified or assayed from a whole cell extract. These methods can be used to determine the concentration of the disclosed compounds can inhibit fifty percent of the enzyme activity (IC50).
row,Compound,pIC50
1,COc1ccc([C@@H]2C[C@H]2NC(=O)COC[C@H](NC(=O)c2ccc(F)cc2)C(=O)N2CCOCC2)cc1,< 6.00
2,O=C(N[C@@H](COCCN[C@@H]1C[C@H]1c1ccc(F)cc1)C(=O)N1CCOCC1)c1ccc(F)cc1,> 6.00
